Consider 1 molecule from the NIST ThermoML archive (doi:10.1016/j.jct.2015.05.019).

For data set [1] the following is noted: Crystal; DTA.
A short description of data set [2]: Molar enthalpy of transition or fusion. The settings on record: Crystal; DSC.

Numbers after ± are expanded uncertainties.

Consider `O=c1c(-c2ccc(O)cc2)coc2cc(O[C@@H]3O[C@H](CO)[C@@H](O)[C@H](O)[C@H]3O)cc(O)c12` [genistin], for which the Normal melting temperature in data set [1] was 274.32 ± 0.5 °C. Moreover, the “Molar enthalpy of transition or fusion” value in data set [2] worked out at 15.7 ± 3.11 kcal/mol.
